Test results from PMC7171677 (ACS infectious diseases, 2019).
Values after ≈ are worked out from the molar mass of the structure shown. “Also recorded” adds a separate entry of the source. Read-outs that look alike come from different tables or passages of the source.

Legend:
[1] = tested on: PfENT1-expressing fui1Δ yeast; test: 5-FUrd inhibition of PfENT1-expressing fui1Δ yeast growth; format: cell-based; conditions: Saccharomyces cerevisiae, read-out: IC50 for inhibition of yeast growth
[2] = tested on: PfENT1-KO (pfent1Δ) parasites in the Dd2 background; test: P. falciparum parasite proliferation, PfENT1-knockout; format: cell-based, Plasmodium falciparum; conditions: for IC50: Plasmodium falciparum, DD2, read-out: PfENT1-KO parasite proliferation IC50
[3] = molecular target: T1, PfENT1 (Plasmodium falciparum, UniProt Q8IDM6); test: Yeast Kill Assay; format: cell-based
T1 sequence (Q8IDM6 1-422): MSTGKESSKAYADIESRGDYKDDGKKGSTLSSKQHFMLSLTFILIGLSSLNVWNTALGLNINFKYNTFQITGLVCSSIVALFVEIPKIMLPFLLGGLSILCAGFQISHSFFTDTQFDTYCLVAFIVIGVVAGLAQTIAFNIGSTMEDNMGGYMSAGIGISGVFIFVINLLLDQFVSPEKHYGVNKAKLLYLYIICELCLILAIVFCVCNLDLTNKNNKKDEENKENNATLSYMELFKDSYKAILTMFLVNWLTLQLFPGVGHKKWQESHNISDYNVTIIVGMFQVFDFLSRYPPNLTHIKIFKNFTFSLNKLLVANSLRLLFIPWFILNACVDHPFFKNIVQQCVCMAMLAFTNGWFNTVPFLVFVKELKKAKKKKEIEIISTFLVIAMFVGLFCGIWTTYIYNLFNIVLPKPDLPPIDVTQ

[4] = molecular target: T1, PfENT1; test: [3H]adenosine uptake into PfENT1-expressing yeast; format: cell-based
[5] = tested on: 3D7 strain P. falciparum parasites; test: P. falciparum parasite proliferation, 3D7 strain; format: cell-based; conditions: Plasmodium falciparum, 3D7, 48 h, read-out: 3D7 parasite proliferation IC50
[6] = molecular target: T1, PfENT1; test: Yeast Kill Assay; format: cell-based; remark: listed apart in the source
[7] = molecular target: PbENT1 (Plasmodium berghei, UniProt A0A509AYF4); test: [3H]adenosine uptake into PbENT1-expressing yeast; format: cell-based
Chain of PbENT1 (A0A509AYF4 whole entry): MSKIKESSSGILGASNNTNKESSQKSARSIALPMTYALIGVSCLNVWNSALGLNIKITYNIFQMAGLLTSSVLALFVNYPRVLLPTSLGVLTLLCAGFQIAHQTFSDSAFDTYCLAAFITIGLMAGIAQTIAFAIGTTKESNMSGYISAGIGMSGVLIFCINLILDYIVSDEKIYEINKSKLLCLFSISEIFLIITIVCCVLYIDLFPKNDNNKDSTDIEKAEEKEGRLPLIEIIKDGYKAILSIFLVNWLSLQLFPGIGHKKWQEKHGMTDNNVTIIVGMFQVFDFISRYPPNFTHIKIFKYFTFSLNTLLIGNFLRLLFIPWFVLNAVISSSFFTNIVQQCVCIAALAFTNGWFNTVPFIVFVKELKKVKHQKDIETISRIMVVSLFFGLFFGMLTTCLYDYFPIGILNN

[8] = Kinetic solubility; format: physicochemical; conditions: phosphate buffered saline, pH 7.4, aqueous buffer, kinetic from dmso stock
[9] = molecular target: PvENT1 (Plasmodium vivax, UniProt A5K8B0); test: [3H]adenosine uptake into PvENT1-expressing yeast; format: cell-based
Chain of PvENT1 (A5K8B0 whole entry): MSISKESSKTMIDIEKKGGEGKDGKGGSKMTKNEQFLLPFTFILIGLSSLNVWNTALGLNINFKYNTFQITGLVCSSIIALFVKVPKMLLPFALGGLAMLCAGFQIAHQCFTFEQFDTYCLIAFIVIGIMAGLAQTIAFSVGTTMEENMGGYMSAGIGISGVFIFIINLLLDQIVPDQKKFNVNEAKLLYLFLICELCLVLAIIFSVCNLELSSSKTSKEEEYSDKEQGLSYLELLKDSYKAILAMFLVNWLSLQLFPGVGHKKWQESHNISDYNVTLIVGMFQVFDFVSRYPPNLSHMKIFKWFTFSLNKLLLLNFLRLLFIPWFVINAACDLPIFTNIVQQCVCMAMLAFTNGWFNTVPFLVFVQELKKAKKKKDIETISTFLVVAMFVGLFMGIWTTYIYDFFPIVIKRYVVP

[10] = tested on: 7G8 strain P. falciparum parasites; test: P. falciparum parasite proliferation, 7G8 strain; format: cell-based; conditions: Plasmodium falciparum, 7G8, read-out: 7G8 parasite proliferation IC50
[11] = tested on: HB3 strain P. falciparum parasites; test: P. falciparum parasite proliferation, HB3 strain; format: cell-based; conditions: Plasmodium falciparum, HB3, read-out: HB3 parasite proliferation IC50
[12] = in vitro; format: cell-based; conditions: human
[13] = molecular target: human serum albumin (Homo sapiens, UniProt P02768); test: HSA column binding; format: in vitro ADME
Chain of human serum albumin (P02768 25-609): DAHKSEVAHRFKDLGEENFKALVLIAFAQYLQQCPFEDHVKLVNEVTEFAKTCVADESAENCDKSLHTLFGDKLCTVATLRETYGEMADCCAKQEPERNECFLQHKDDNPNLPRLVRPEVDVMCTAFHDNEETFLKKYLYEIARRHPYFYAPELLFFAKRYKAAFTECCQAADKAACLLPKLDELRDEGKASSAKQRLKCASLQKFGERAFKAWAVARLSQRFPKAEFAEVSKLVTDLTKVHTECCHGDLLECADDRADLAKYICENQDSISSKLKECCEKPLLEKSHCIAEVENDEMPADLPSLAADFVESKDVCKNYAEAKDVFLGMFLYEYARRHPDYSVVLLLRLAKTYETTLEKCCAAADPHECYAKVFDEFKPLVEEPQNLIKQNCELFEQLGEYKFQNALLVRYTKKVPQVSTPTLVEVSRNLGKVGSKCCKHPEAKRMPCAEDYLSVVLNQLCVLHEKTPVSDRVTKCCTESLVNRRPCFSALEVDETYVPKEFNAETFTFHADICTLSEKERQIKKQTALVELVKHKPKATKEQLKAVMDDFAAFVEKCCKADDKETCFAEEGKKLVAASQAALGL

[14] = molecular target: T2, hENT1 (Homo sapiens, UniProt Q99808); test: [3H]adenosine uptake into human RBC; format: cell-based; conditions: for hENT1 [3H]adenosine uptake into RBC IC50: mean ± SD, NE = no effect at 100 μM
T2 sequence (Q99808 1-456): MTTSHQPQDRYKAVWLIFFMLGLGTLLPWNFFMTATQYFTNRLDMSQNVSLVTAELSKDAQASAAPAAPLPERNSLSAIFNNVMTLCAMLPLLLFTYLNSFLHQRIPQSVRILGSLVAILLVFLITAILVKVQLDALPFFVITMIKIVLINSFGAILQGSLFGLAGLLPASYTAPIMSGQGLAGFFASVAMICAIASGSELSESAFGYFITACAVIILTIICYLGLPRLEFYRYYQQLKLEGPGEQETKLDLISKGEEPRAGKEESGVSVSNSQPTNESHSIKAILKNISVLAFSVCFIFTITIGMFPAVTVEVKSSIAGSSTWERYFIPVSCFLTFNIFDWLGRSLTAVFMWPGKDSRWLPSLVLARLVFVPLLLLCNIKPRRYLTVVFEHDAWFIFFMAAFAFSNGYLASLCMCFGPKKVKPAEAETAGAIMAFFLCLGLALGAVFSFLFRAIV

[15] = tested on: Dd2 strain P. falciparum parasites; test: P. falciparum parasite proliferation, Dd2 strain; format: cell-based, Plasmodium falciparum
[16] = Property Forecast Index; format: physicochemical; conditions: chromatographic log D7.4 + aromatic ring count
[17] = molecular target: T1, PfENT1; test: Yeast HTS Growth Assay
[18] = molecular target: T3, hFNT (Homo sapiens, UniProt Q8NBI5); test: [3H]hypoxanthine uptake into human RBC; format: cell-based; conditions: mean ± SD; 15 minutes; NE = no effect at 100 μM
T3 sequence (Q8NBI5 1-491): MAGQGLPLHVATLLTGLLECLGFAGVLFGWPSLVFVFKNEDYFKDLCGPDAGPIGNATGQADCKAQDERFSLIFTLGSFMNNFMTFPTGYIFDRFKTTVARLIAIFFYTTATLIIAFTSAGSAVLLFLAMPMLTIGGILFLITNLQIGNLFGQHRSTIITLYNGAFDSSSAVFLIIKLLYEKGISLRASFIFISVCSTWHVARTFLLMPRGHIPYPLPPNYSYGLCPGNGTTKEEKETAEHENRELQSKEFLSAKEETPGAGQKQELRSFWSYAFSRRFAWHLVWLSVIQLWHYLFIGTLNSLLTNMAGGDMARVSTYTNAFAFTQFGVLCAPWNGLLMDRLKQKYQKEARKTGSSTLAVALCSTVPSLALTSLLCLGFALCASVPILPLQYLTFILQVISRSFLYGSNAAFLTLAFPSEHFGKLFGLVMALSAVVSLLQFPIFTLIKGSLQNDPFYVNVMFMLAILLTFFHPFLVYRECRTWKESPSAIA

[19] = Plasmodium falciparum, DD2, read-out: Dd2 parasite proliferation IC50, mean ± SD

SMILES	IC50 [2]	IC50 [3]	IC50 [4]	IC50 [5]	IC50 [6]	IC50 [7]	solubility at 1 h [8]	IC50 [9]	IC50 [10]	IC50 [11]	IC50 at 48 h [12]	HSA Column binding [13]	IC50 [14]	IC50 [15, 19]	PFI [16]	EC50 [17]	hFNT [3H]hypoxanthine uptake into RBC IC50 [18]	other results
O=c1[nH]c(=O)n([C@@H]2O[C@H](CO)[C@@H](O)[C@H]2O)cc1F [5-FUrd, 5-fluorouridine]	–	–	–	–	–	–	–	–	–	–	–	–	–	–	–	–	–	IC50 [1]: 4800 nM
COc1ccc(-c2nc(C(=O)Nc3cccc(-c4nnc5n4CCCCC5)c3)cs2)cc1OC [GSK-1, 2-(3,4-Dimethoxyphenyl)-N-[3-(6,7,8,9-tetrahydro-5H-[1,2,4]triazolo[4,3-a]azepin-3-yl)phenyl]-1,3-thiazole-4-carboxamide]	17000 ± 4800 nM	540 ± 200 nM	120 ± 80 nM	780 ± 200 nM	630 nM	130 ± 50 nM	10.5 µg/mL (≈ 22.1 µM)	140 ± 70 nM	480 ± 200 nM	340 ± 100 nM	> 100000 nM	94%	990 ± 810 nM	110 ± 9 nM	8.8	3160 nM	–	–
CCc1nnc(NC(=O)c2nc(-c3ccc(Cl)cc3)n3c2CCCCC3)s1 [GSK-2, 3-(4-Chlorophenyl)-N-(5-ethyl-1,3,4-thiadiazol-2-yl)-6,7,8,9-tetrahydro-5H-imidazo[1,5-a]azepine-1-carboxamide]	2660 nM	110 ± 40 nM	30 ± 30 nM	2250 ± 400 nM	< 80 nM	50 ± 30 nM	2.5 µg/mL (≈ 6.22 µM)	40 ± 30 nM	4520 ± 100 nM	3550 ± 700 nM	> 100000 nM	97%	24500 ± 24800 nM	1890 ± 200 nM	9.6	250 nM	did not inhibit	–
O=C(Nc1ccccc1C(=O)NC1CC1)c1cccc(N2CCCC2=O)c1 [GSK-3, N-Cyclopropyl-2-{[3-(2-oxo-1-pyrrolidinyl)benzoyl]amino}benzamide]	–	460 ± 300 nM	30 ± 10 nM	2380 ± 500 nM	630 nM	70 ± 40 nM	112 µg/mL (≈ 308 µM)	40 ± 10 nM	6080 ± 1300 nM	2210 ± 600 nM	> 100000 nM	84%	72400 ± 19300 nM	590 ± 50 nM	6	2510 nM	–	PfENT1-KO parasite proliferation IC50 ([2]; 75 μM hypoxanthine, NE = no effect at 74.2 μM, N=1 for GSK-2 and GSK-5): Low activity/NE^e
Cc1oc(-c2ccccc2)nc1C(=O)NCCN1CCCCCC1=O [GSK-4, 5-Methyl-N-[2-(2-oxo-1-azepanyl)ethyl]-2-phenyl-1,3-oxazole-4-carboxamide]	29400 ± 500 nM	430 ± 300 nM	20 ± 10 nM	6200 ± 1900 nM	1260 nM	10 ± 10 nM	156 µg/mL (≈ 457 µM)	20 ± 40 nM	8440 ± 2400 nM	6160 ± 2500 nM	> 100000 nM	92%	51000 ± 27700 nM	1900 ± 400 nM	6.5	3980 nM	did not inhibit	–
CC(=O)Nc1nc(-c2c(F)cccc2F)cs1 [GSK-5, N-[4-(2,6-Difluorophenyl)-1,3-thiazol-2-yl]acetamide]	10800 nM	4000 ± 1300 nM	2590 ± 2360 nM	8720 ± 1600 nM	6310 nM	3090 ± 2700 nM	16 µg/mL (≈ 62.9 µM)	2710 ± 250 nM	16100 ± 5500 nM	9090 ± 4500 nM	> 100000 nM	90%	–	10600 ± 2100 nM	5.7	63100 nM	–	hENT1 [3H]adenosine uptake into RBC IC50 [14]: did not inhibit; also recorded: Low activity/NE^d
CCn1cnnc1C1CCN(C(=O)c2cn3ccc(C)cc3n2)CC1 [GSK-6, [4-(4-Ethyl-4H-1,2,4-triazol-3-yl)-1-piperidinyl](7-methylimidazo[1,2-a]pyridin-2-yl)methanone]	> 100000 nM	1200 ± 1100 nM	3980 ± 1350 nM	10300 ± 4700 nM	1260 nM	–	> 133 µg/mL	–	19000 ± 3500 nM	19700 ± 4100 nM	> 100000 nM	48%	–	1890 nM	4.2	10000 nM	did not inhibit	PbENT1 [3H]Ado uptake IC50 ([7]; mean ± SD, yeast expressing P. berghei ENT1, NE = no effect at 100 μM): did not inhibit; PvENT1 [3H]Ado uptake IC50 ([9]; mean ± SD, yeast expressing P. vivax ENT1, NE = no effect at 100 μM): did not inhibit; hENT1 [3H]adenosine uptake into RBC IC50 [14]: did not inhibit; IC50 ([15]; read-out: Dd2 parasite proliferation IC50, mean ± SD): 3300 ± 1700 nM
